{"source": "patent US20190048052A1", "about": "“ANTI-MICROBIAL PEPTIDES AND COATINGS” (Board of Regents of the University of Nebraska, priority 2016, published 2019)", "key": {"E. coli K12": {"test_system": "E. coli K12", "type": "cell-based, Escherichia coli", "method": "(§1) The bacterial strains used here included Gram-positive bacteria Staphylococcus aureus USA300 LAC, Staphylococcus epidermidis 1457, Bacillus subtilis 168, and Gram-negative Escherichia coli K12. Clinical strains of S. aureus, including Mu50, UAMS-1 and Newman, were also evaluated.\n(§2) The antimicrobial activity of peptides was evaluated using a standard broth microdilution protocol (Wang, G. (2008) J. Biol. Chem., 283:32637-32643). In brief, exponential phase bacteria at 10^6 CFU were incubated with serially diluted peptides overnight for ˜20 hours at 37° C. The plates were read on a ChroMate® 4300 Microplate Reader at 630 nm (GMI, Ramsey, Minn.). […] In addition, the effects of human serum (up to 10%), pH (6.8, 7.4 and 8.0) and 150 mM sodium chloride (NaCl) on MICs against S. aureus USA300 were also evaluated (Mishra et al. (2015) RSC Advances 5:59758-59769)."}, "S. aureus USA300 [1]": {"test_system": "S. aureus USA300", "type": "cell-based, Staphylococcus aureus", "method": "The minimal bactericidal concentration (MBC) was determined by plating 50 μl of the content in the clear wells of the above MIC assays. MBC was determined on the petri dishes without bacterial colony formation after overnight growth (Wang et al. (2012) Biochemistry 51:653-664)."}, "S. aureus V8 protease": {"molecular_target": "T1, S. aureus V8 protease (Staphylococcus aureus, UniProt P0C1U8)", "T1 construct": "purchased Sigma or Fisher", "T1 sequence (P0C1U8 69-336)": "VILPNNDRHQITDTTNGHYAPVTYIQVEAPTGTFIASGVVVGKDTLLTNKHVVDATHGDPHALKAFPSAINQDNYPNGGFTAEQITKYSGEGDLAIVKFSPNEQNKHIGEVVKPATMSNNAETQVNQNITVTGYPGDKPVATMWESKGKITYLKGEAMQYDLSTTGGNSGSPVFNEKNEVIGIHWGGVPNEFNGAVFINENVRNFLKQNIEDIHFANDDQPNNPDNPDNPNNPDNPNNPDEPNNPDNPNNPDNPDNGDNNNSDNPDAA", "type": "in vitro ADME", "conditions": "peptide:protease 40:1, 24 hours, 37° C.", "method": "(§3) When degraded, no peptide band could be detected on a 5% stacking/18% resolving tricine gel after 2-4 hours incubation at 37° C. Briefly, a solution (100 μL) containing 250 μM peptide and 6.25 μM protease (Sigma or Fisher) in 10 mM PBS buffer (pH 8) was incubated at 37° C. (peptide/protease molar ratio, 40:1). Aliquots (10 μL) of the reaction solutions were taken at 0, 6, and 24 hours and immediately mixed with 10 μL of 2× SDS loading buffer followed by boiling for 5 minutes to stop the reaction. […] After electrophoresis, the gel was stained by Brilliant Blue R-250 (Fisher) and destained to view the peptide bands."}, "S. epidermidis 1457": {"test_system": "S. epidermidis 1457", "type": "cell-based, Staphylococcus epidermidis", "method": "as §1, §2"}, "S. aureus USA300 [2]": {"test_system": "S. aureus USA300", "type": "cell-based, Staphylococcus aureus", "method": "as §1, §2", "remark": "listed apart in the source"}, "proteinase K": {"molecular_target": "T2, proteinase K (Parengyodontium album, UniProt P06873)", "T2 construct": "purchased Sigma or Fisher", "T2 sequence (P06873 106-384)": "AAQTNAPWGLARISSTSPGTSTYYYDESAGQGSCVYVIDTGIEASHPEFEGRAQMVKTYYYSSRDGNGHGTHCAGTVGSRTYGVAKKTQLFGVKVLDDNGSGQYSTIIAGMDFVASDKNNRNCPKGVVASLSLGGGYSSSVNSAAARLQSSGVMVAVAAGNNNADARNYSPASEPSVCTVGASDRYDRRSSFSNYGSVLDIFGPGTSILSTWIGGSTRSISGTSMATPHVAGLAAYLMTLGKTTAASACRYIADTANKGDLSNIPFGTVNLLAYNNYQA", "assay": "Peptide stability to proteases (SDS-PAGE)", "type": "in vitro ADME, fungal", "conditions": "peptide:protease 40:1, 24 hours, 37° C.", "method": "as §3"}, "B. subtilis 168": {"test_system": "B. subtilis 168", "type": "cell-based, Bacillus subtilis", "method": "as §1, §2"}, "[3]": {"test_system": "Candida albicans ATCC 10231", "type": "cell-based", "conditions": "ATCC 10231, 48 h", "method": "(§4) Fungal strains used in this study include Candida albicans ATCC 10231, C. glabrata ATCC 2001 and C. tropicalis ATCC 13803. The fungi were grown in Remel Dex broth (Thermo Fisher Scientific, KS). Antifungal assays were conducted essentially as described for antibacterial assays above, except for a higher starting density at an OD600 0.02 and a longer incubation time of ˜48 hours prior to microplate reading (Mishra et al. (2015) RSC Advances 5:59758-59769)."}, "MTS cytotoxicity assay [4]": {"assay": "MTS cytotoxicity assay", "type": "cell-based", "conditions": "human", "method": "(§5) HeLa CCL-2 epithelial adenocarcinoma cells from American Type Culture Collection (ATCC) were maintained in DMEM high glucose media with 4 mM L-glutamine (NyClone) and 100 U/mL penicillin, 100 μg/mL streptomycin (pen/strep) (Life Technologies), and 10% (v/v) inactivated fetal bovine serum (FBS) (NyClone). Cells were grown in 5% CO2 at 37° C. and were detached from the culturing dish at 80% confluency using 0.025% trypsin-EDTA (NyClone) treatment. Peptide influence on the cell viability was estimated by using the MTS assay according to the manufacturer's protocol (MTS, CellTiter96® AQ One Solution Cell Proliferation Assay, Promega) with minor modifications and as described elsewhere (Mishra et al. (2015) RSC Advances 5:59758-59769). In short, cells were cultured in flat bottomed 96 well microtiter plates (Corning Life Science) at a seeding density of 20,000 cells/well. At confluence ˜100% achieved after 20-24 hours of cultivation, the cells were washed twice with 100 μL Dulbecco's Phosphate Buffered Saline (Life Technologies). Further, 90 μL of DMEM media with 10% FBS, pen/step was added before exposure to 10 μL of the peptide solution in the concentration range 12.5-100 μM. Plates were incubated at 37° C. After 1 hour, 10 μL MTS, CellTiter96® was added. Plates were further incubated for another 2 hours at 37° C. and finally, the absorbance was measured on ChroMate® reader (Awareness Technology) at 492 nm. Culture medium and 0.2% SDS were used as negative and positive controls, respectively.\nHuman skin HaCaT (immortalized keratinocyte from AddexBio, T0020001) and kidney HEK293 cells were also cultivated for cytotoxicity evaluation of the peptides in a similar manner."}, "MTS cytotoxicity assay [5]": {"assay": "MTS cytotoxicity assay", "type": "cell-based", "conditions": "human, HeLa CCL-2 cells", "method": "as §5"}, "C. glabrata ATCC 2001": {"test_system": "C. glabrata ATCC 2001", "type": "cell-based, Candida glabrata", "conditions": "ATCC 2001, 48 h", "method": "as §4"}, "S. aureus Mu50": {"test_system": "S. aureus Mu50", "type": "cell-based, Staphylococcus aureus", "method": "as §1, §2"}, "S. aureus Newman": {"test_system": "S. aureus Newman", "type": "cell-based, Staphylococcus aureus", "method": "as §1, §2"}, "S. aureus UAMS-1": {"test_system": "S. aureus UAMS-1", "type": "cell-based, Staphylococcus aureus", "method": "as §1, §2"}, "Hemolytic assay": {"assay": "Hemolytic assay", "type": "cell-based", "conditions": "red blood cells, hemolysis", "method": "Hemolytic analysis of selected peptides was performed using an established protocol (Mishra et al. (2015) RSC Advances 5:59758-59769). Briefly, human blood cells (UNMC Blood Bank) were washed three times with phosphate buffer saline (PBS) and diluted to a 2% solution. After peptide treatment, incubation at 37° C. for one hour, and centrifugation at 13,000 rpm, aliquots of the supernatant were transferred to a fresh 96-well microplate. To assess peptide cytotoxicity, the amount of hemoglobin released was measured at 545 nm. The percent lysis was calculated by assuming 100% release when human blood cells were treated with 1% TRITON™ X-100, and 0% release when incubated with PBS buffer. The hemolytic assays using chicken, bovine, and porcine blood cells (Lampire Biological Laboratories, Inc.) were performed in the same manner."}, "C. tropicalis ATCC 13803": {"test_system": "C. tropicalis ATCC 13803", "type": "cell-based, Candida tropicalis", "conditions": "ATCC 13803, 48 h", "method": "as §4"}, "S. aureus USA300 [6]": {"test_system": "S. aureus USA300", "assay": "Propidium iodide membrane permeation", "type": "cell-based, Staphylococcus aureus", "method": "Fluorescence spectroscopy was also used to follow bacterial killing. In brief, a serially diluted 10× peptide (10 μL) was made in 96-well coming COSTAR microtiter plates. Propidium iodide (2 μL) was added at 50 μM to each well which was finally incubated with S. aureus USA300 bacteria (88 μL at a final OD600 ˜0.1) with continuous shaking at 100 rpm, 37° C. in a FLUOstar® Omega (BMG LABTECH Inc, NC) microplate reader. The plates were read every 5 minutes for a total duration of 2 hours with excitation and emission wavelengths at 584 nm and 620 nm respectively. Plots were made using averaged readings from duplicated experiments after subtraction of the media control."}}, "note": "Read-outs that look alike come from different tables or passages of the source. Non-standard residues stand in square brackets, D forms with d. Residues, ends and D or L forms follow the SMILES beside them.", "data": [{"smiles": "CC[C@@H](C)[C@@H](NC(=O)[C@@H](CCCCN)NC(=O)[C@@H](CCCNC(=N)N)NC(=O)[C@@H](CC(C)C)NC(=O)[C@@H](Cc1c[nH]c2ccccc12)NC(=O)[C@@H](Cc1c[nH]c2ccccc12)NC(=O)[C@H](N)Cc1c[nH]c2ccccc12)C(=O)N[C@H](Cc1c[nH]c2ccccc12)C(N)=O", "note": "[TetraF2W-RK-d, wwwlrkiw] (H-[dW][dW][dW][dL][dR][dK][dI][dW]-NH2; N-terminus and C-terminus assumed)", "values": [{"measurement": "MIC E. coli K12", "setting": "E. coli K12", "value": 6.2, "unit": "µM"}, {"measurement": "MIC E. coli K12", "setting": "E. coli K12; K12", "value": 6.2, "unit": "µM"}, {"measurement": "MBC S. aureus USA300", "setting": "S. aureus USA300 [1]; USA300", "value": 12.5, "unit": "µM"}, {"measurement": "stability to S. aureus V8 protease", "setting": "S. aureus V8 protease", "value": "remained stable"}, {"measurement": "MIC S. epidermidis 1457", "setting": "S. epidermidis 1457", "value": 6.2, "unit": "µM"}, {"measurement": "MIC S. aureus USA300", "setting": "S. aureus USA300 [2]; USA300", "value": 3.1, "unit": "µM"}, {"measurement": "stability to fungal proteinase K", "setting": "proteinase K", "value": "remained stable"}, {"measurement": "MIC B. subtilis 168", "setting": "B. subtilis 168", "value": 3.1, "unit": "µM"}]}, {"smiles": "CC[C@H](C)[C@H](NC(=O)[C@H](CCCCN)NC(=O)[C@H](CCCCN)NC(=O)[C@H](CC(C)C)NC(=O)[C@H](Cc1c[nH]c2ccccc12)NC(=O)[C@H](Cc1c[nH]c2ccccc12)NC(=O)[C@@H](N)Cc1c[nH]c2ccccc12)C(=O)N[C@@H](Cc1c[nH]c2ccccc12)C(N)=O", "note": "[TetraF2W-KK, WWWLKKIW] (H-WWWLKKIW-NH2; N-terminus and C-terminus assumed)", "values": [{"measurement": "MIC Candida albicans", "setting": "[3]", "value": 6.2, "unit": "µM"}, {"measurement": "MIC E. coli K12", "setting": "E. coli K12; K12", "value": "12.5 to 25", "unit": "µM"}, {"measurement": "CC50 at 1 hour", "setting": "MTS cytotoxicity assay [4]; HEK293 cells", "value": 50, "unit": "µM"}, {"measurement": "CC50 at 1 hour", "setting": "MTS cytotoxicity assay [4]; HaCaT cells", "value": 50, "unit": "µM"}, {"measurement": "MBC S. aureus USA300", "setting": "S. aureus USA300 [1]", "value": "> 25", "unit": "µM"}, {"measurement": "MBC S. aureus USA300", "setting": "S. aureus USA300 [1]; USA300", "value": ">25", "unit": "µM"}, {"measurement": "CC50 at 1 hour", "setting": "MTS cytotoxicity assay [5]", "value": 70, "unit": "µM"}, {"measurement": "MIC S. epidermidis 1457", "setting": "S. epidermidis 1457", "value": 6.2, "unit": "µM"}, {"measurement": "MIC Candida glabrata", "setting": "C. glabrata ATCC 2001", "value": "6.2 to 12.5", "unit": "µM"}, {"measurement": "Antimicrobial activity (MIC) Mu50", "setting": "S. aureus Mu50", "value": 6.2, "unit": "µM"}, {"measurement": "Antimicrobial activity (MIC) Newman", "setting": "S. aureus Newman", "value": 6.2, "unit": "µM"}, {"measurement": "Antimicrobial activity (MIC) UAMS-1", "setting": "S. aureus UAMS-1", "value": 6.2, "unit": "µM"}, {"measurement": "Antimicrobial activity (MIC) 150 mM NaCl", "setting": "S. aureus USA300 [2]; USA300", "value": "3.1 to 6.2", "unit": "µM"}, {"measurement": "Antimicrobial activity (MIC) USA300", "setting": "S. aureus USA300 [2]; USA300", "value": "3.1 to 6.2", "unit": "µM"}, {"measurement": "MIC S. aureus USA300", "setting": "S. aureus USA300 [2]; USA300", "value": "3.1 to 6.2", "unit": "µM"}, {"measurement": "Antimicrobial activity (MIC) pH 6.8", "setting": "S. aureus USA300 [2]; USA300, pH 6.8", "value": 12.5, "unit": "μM"}, {"measurement": "Antimicrobial activity (MIC) Normal medium (pH 7.4)", "setting": "S. aureus USA300 [2]; USA300, pH 7.4", "value": "3.1-6.2 μM"}, {"measurement": "Antimicrobial activity (MIC) pH 8", "setting": "S. aureus USA300 [2]; USA300, pH 8", "value": 3.1, "unit": "μM"}, {"measurement": "CC50 at 1 hour", "setting": "Hemolytic assay; chicken, read-out: LC50 Chicken RBCs", "value": 50, "unit": "µM"}, {"measurement": "CC50 at 1 hour", "setting": "Hemolytic assay; human, read-out: LC50 Human RBCs", "value": 40, "unit": "µM"}, {"measurement": "CC50 at 1 hour", "setting": "Hemolytic assay; pig, read-out: LC50 Porcine RBCs", "value": 55, "unit": "µM"}, {"measurement": "MIC Candida tropicalis", "setting": "C. tropicalis ATCC 13803", "value": 1.6, "unit": "µM"}, {"measurement": "propidium iodide fluorescence change after treatment", "setting": "S. aureus USA300 [6]", "value": "least potent"}, {"measurement": "MIC B. subtilis 168", "setting": "B. subtilis 168", "value": 6.2, "unit": "µM"}]}]}
